Like-named read-outs stand apart in the source and are kept apart here.
Assays:
Format in all cases: biochemical
CDK4/CCND3 = CDK4/CCND3 (Homo sapiens, UniProt P11802); test: CDK4 homogeneous time-resolved fluorescence (HTRF) kinase assay; conditions: CDK4/CCND
Outline: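 TR-FRET read (665 nm, or 665/615 ratio) of 4E-BP1 Thr37/46 phosphorylation by 1.5 nM CDK4/CCND3 at 1 mM ATP, 50 nM ULight peptide, 1% DMSO. Reaction ran 60 min at 23 °C after 20 min compound–enzyme preincubation. IC50 from 11-point half-log dilutions, top 10 μM.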

CDK6/CCND1 = CDK6/CCND1 (Homo sapiens, UniProt Q00534); test: CDK6 homogeneous time-resolved fluorescence (HTRF) kinase assay; conditions: CDK6/CCND
Outline: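 Assay conditions: HEPES buffer containing 10 mM MgCl2, 1 mM EGTA, 2 mM DTT, 0.01% Tween 20; 1 nM CDK6/CCND1, 50 nM peptide substrate, 1 mM ATP. Detection after 60 min reaction used 2 nM europium antibody with 340 nm excitation. Potency fitted from half-log series, 11 points.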

CDK1/CCNB1 = CDK1/CCNB1 (Homo sapiens, UniProt P06493); test: CDK1 homogeneous time-resolved fluorescence (HTRF) kinase assay; conditions: CDK1/CCNB
Outline: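 0.5 nM CDK1/CCNB1 was preincubated 20 min at 23 °C with compound in HEPES pH-unspecified buffer (MgCl2, EGTA, DTT, Tween 20), then reacted 60 min with 1 mM ATP and 50 nM ULight-4E-BP1 (Thr37/46) peptide. EDTA-stopped reactions were detected with 2 nM Eu-anti-phospho antibody; IC50 from 11-point half-log titrations.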

CDK2/CCNE1 = CDK2/CCNE1 (Homo sapiens, UniProt P24941); test: CDK2 homogeneous time-resolved fluorescence (HTRF) kinase assay; conditions: CDK2/CCNE
Outline: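 TR-FRET read-out (665 nm, or 665/615 ratio) of Eu-antibody detection of phospho-4E-BP1 (Thr37/46) ULight peptide. Enzyme 3 nM, ATP 1 mM, peptide 50 nM, 1% DMSO; 60 min reaction at 23 °C after 20 min compound preincubation. IC50 from 11-point half-log titrations, top typically 10 μM.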

[1] = >250 nM marked x, read-out: CDK4/CCND IC50 >250 nM
[2] = >250 nM marked x, read-out: CDK6/CCND IC50 >250 nM
[3] = >250 nM marked x, read-out: CDK1/CCNB IC50 >250 nM
[4] = 25-250 nM marked x, read-out: CDK2/CCNE IC50 25-250 nM
[5] = <25 nM, read-out: CDK4/CCND IC50 <25 nM
[6] = 25-250 nM marked x, read-out: CDK1/CCNB IC50 25-250 nM
[7] = <25 nM, read-out: CDK2/CCNE IC50 <25 nM
[8] = 25-250 nM marked x, read-out: CDK4/CCND IC50 25-250 nM
[9] = 25-250 nM marked x, read-out: CDK6/CCND IC50 25-250 nM

Chain of CDK1/CCNB1 (P06493 whole entry): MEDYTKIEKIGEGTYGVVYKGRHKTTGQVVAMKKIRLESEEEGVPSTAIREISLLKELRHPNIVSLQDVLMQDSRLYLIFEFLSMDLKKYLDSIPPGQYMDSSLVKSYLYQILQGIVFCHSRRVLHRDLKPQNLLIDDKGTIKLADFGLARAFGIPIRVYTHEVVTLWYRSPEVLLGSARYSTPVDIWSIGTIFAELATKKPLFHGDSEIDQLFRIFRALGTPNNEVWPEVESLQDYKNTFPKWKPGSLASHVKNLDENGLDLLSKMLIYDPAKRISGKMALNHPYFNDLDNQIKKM
Chain of CDK1/CCNB1 (P14635 whole entry partner): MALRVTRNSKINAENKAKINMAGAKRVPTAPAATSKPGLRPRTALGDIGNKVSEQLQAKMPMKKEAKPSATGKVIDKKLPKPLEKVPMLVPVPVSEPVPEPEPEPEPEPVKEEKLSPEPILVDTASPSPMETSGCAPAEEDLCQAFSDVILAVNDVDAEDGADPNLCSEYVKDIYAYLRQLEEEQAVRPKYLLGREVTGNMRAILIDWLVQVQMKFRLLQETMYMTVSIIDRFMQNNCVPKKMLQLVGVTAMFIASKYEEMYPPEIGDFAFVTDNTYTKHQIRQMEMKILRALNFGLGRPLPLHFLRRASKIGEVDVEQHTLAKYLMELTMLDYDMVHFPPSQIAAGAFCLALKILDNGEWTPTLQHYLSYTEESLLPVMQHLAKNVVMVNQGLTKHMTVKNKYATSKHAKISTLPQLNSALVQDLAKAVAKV
Chain of CDK6/CCND1 (Q00534 whole entry): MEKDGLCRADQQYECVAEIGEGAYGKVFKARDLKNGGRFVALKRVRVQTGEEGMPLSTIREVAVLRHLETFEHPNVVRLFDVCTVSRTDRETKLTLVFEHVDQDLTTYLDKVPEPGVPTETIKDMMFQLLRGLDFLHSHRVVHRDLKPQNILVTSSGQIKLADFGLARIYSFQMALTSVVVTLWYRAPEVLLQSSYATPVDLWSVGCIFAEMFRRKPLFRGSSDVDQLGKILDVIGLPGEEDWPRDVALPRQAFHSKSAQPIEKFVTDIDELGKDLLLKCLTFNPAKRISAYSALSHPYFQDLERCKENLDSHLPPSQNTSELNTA
Chain of CDK6/CCND1 (P24385 whole entry partner): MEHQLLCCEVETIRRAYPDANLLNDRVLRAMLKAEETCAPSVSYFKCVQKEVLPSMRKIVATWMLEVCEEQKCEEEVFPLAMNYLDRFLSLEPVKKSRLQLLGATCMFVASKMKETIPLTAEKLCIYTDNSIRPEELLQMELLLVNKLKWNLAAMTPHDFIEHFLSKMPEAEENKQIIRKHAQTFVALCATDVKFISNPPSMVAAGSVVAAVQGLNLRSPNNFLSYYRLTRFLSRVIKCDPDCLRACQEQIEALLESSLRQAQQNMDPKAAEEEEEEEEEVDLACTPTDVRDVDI
Chain of CDK4/CCND3 (P11802 whole entry): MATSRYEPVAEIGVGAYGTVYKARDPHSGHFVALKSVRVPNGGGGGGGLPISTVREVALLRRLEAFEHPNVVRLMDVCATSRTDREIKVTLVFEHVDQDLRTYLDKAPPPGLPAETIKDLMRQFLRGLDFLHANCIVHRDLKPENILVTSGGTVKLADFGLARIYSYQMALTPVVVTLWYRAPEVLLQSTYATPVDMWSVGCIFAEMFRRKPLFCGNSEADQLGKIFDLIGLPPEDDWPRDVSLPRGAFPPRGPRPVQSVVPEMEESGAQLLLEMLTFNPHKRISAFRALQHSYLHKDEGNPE
Chain of CDK4/CCND3 (P30281 whole entry partner): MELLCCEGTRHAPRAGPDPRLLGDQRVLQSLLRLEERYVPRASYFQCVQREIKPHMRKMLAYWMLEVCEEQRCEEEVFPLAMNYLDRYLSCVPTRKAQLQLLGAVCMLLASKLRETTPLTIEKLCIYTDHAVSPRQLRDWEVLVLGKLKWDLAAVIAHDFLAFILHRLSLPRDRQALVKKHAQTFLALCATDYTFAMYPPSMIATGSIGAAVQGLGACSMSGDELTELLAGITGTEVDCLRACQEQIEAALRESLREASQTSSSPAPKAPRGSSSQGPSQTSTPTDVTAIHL

| SMILES | IC50 (CDK4/CCND3; [1]) [nM] | IC50 (CDK6/CCND1; [2]) [nM] | IC50 (CDK1/CCNB1; [3]) [nM] | IC50 (CDK2/CCNE1; [4]) [nM] | IC50 (CDK2/CCNE1; [7]) [nM] | IC50 (CDK4/CCND3; [8]) [nM] | further results |
| --- | --- | --- | --- | --- | --- | --- | --- |
| C#Cc1nccc2cnc(Nc3ccc(S(C)(=O)=O)cc3)cc12 [Ex 124, 5-ethynyl-N-(4-(methylsulfonyl)phenyl)-2,6-naphthyridin-3-amine] | > 250 | > 250 | > 250 | 25 to 250 | – | – | – |
| CS(=O)(=O)c1ccc(Nc2cc3c(C4=CCCCC4)nccc3cn2)cc1 [Ex 127, 5-(cyclohex-1-en-1-yl)-N-(4-(methylsulfonyl)phenyl)-2,6-naphthyridin-3-amine] | – | – | – | – | < 25 | – | IC50 (CDK4/CCND3; [5]): < 25 nM; IC50 (CDK6/CCND1; <25 nM, read-out: CDK6/CCND IC50 <25 nM): < 25 nM; IC50 (CDK1/CCNB1; [6]): 25 to 250 nM |
| CS(=O)(=O)c1ccc(Nc2cc3c(C#Cc4ccc(C#N)cc4)nccc3cn2)cc1 [Ex 129, 4-((7-((4-(methylsulfonyl)phenyl)amino)-2,6-naphthyridin-1-yl)ethynyl)benzonitrile] | > 250 | > 250 | > 250 | 25 to 250 | – | – | – |
| CS(=O)(=O)c1ccc(Nc2cc3c(C#CCCO)nccc3cn2)cc1 [Ex 130, 4-(7-((4-(methylsulfonyl)phenyl)amino)-2,6-naphthyridin-1-yl)but-3-yn-1-ol] | – | – | – | – | < 25 | 25 to 250 | IC50 (CDK6/CCND1; [9]): 25 to 250 nM; IC50 (CDK1/CCNB1; [6]): 25 to 250 nM |
| C=CS(=O)(=O)c1ccc(Nc2cc3c(-c4ccc(C#N)cc4)nccc3cn2)cc1 [Ex 131, 4-(7-((4-(vinylsulfonyl)phenyl)amino)-2,6-naphthyridin-1-yl)benzonitrile] | > 250 | > 250 | > 250 | 25 to 250 | – | – | – |
| C=CS(=O)(=O)c1ccc(Nc2cc3c(-c4cccc(C#N)c4)nccc3cn2)cc1 [Ex 136, 3-(7-((4-(vinylsulfonyl)phenyl)amino)-2,6-naphthyridin-1-yl)benzonitrile] | > 250 | > 250 | > 250 | 25 to 250 | – | – | – |
| C=CS(=O)(=O)c1ccc(Nc2cc3c(-c4cccc(COC)c4)nccc3cn2)cc1 [Ex 137, 5-(3-(methoxymethyl)phenyl)-N-(4-(vinylsulfonyl)phenyl)-2,6-naphthyridin-3-amine] | > 250 | > 250 | > 250 | 25 to 250 | – | – | – |
| CS(=O)(=O)c1ccc(Nc2cc3c(C#Cc4ccncc4)nccc3cn2)cc1 [Ex 138, N-(4-(methylsulfonyl)phenyl)-5-(pyridin-4-ylethynyl)-2,6-naphthyridin-3-amine] | – | – | > 250 | – | < 25 | 25 to 250 | IC50 (CDK6/CCND1; [9]): 25 to 250 nM |
| CS(=O)(=O)c1ccc(Nc2cc3c(C4=NCCS4)nccc3cn2)cc1 [Ex 139, 5-(4,5-dihydrothiazol-2-yl)-N-(4-(methylsulfonyl)phenyl)-2,6-naphthyridin-3-amine] | – | – | – | – | < 25 | 25 to 250 | IC50 (CDK6/CCND1; [9]): 25 to 250 nM; IC50 (CDK1/CCNB1; [6]): 25 to 250 nM |
| C=CS(=O)(=O)c1ccc(Nc2cc3c(-c4ccccc4OC(F)(F)F)nccc3cn2)cc1 [Ex 141, 5-(2-(trifluoromethoxy)phenyl)-N-(4-(vinylsulfonyl)phenyl)-2,6-naphthyridin-3-amine] | > 250 | > 250 | > 250 | 25 to 250 | – | – | – |
| C=CS(=O)(=O)c1ccc(Nc2cc3c(-c4ccc5ocnc5c4)nccc3cn2)cc1 [Ex 145, 5-(benzo[d]oxazol-5-yl)-N-(4-(vinylsulfonyl)phenyl)-2,6-naphthyridin-3-amine] | > 250 | > 250 | > 250 | 25 to 250 | – | – | – |
| CS(=O)(=O)c1ccc(Nc2cc3c(C4=CCNCC4)nccc3cn2)cc1 [Ex 146, N-(4-(methylsulfonyl)phenyl)-5-(1,2,3,6-tetrahydropyridin-4-yl)-2,6-naphthyridin-3-amine] | – | – | – | – | – | – | IC50 (CDK4/CCND3; CDK4/CCND IC50 25-250 nM, 25-250 nM marked x): 25 to 250 nM; IC50 (CDK6/CCND1; CDK6/CCND IC50 25-250 nM, 25-250 nM marked x): 25 to 250 nM; IC50 (CDK1/CCNB1; CDK1/CCNB IC50 >250 nM, >250 nM marked x): > 250 nM; IC50 (CDK2/CCNE1; CDK2/CCNE IC50 25-250 nM, 25-250 nM marked x): 25 to 250 nM |
| Cc1c(-c2nccc3cnc(Nc4ccc(S(C)(=O)=O)cc4)cc23)ccc2[nH]ncc12 [Ex 148, 5-(4-methyl-1H-indazol-5-yl)-N-(4-(methylsulfonyl)phenyl)-2,6-naphthyridin-3-amine] | – | – | > 250 | – | < 25 | 25 to 250 | IC50 (CDK6/CCND1; [9]): 25 to 250 nM |
| C=CS(=O)(=O)c1ccc(Nc2cc3c(C#CC)nccc3cn2)cc1 [Ex 149, 5-(prop-1-yn-1-yl)-N-(4-(vinylsulfonyl)phenyl)-2,6-naphthyridin-3-amine] | > 250 | > 250 | > 250 | – | < 25 | – | – |
| CS(=O)(=O)c1ccc(Nc2cc3c(C#C[C@H]4CC[C@H](O)CC4)nccc3cn2)cc1 [Ex 150, (1r,4r)-4-((7-((4-(methylsulfonyl)phenyl)amino)-2,6-naphthyridin-1-yl)ethynyl)cyclohexan-1-ol] | – | – | > 250 | – | < 25 | – | IC50 (CDK4/CCND3; [5]): < 25 nM; IC50 (CDK6/CCND1; [9]): 25 to 250 nM |
| C=CS(=O)(=O)c1ccc(Nc2cc3c(C#Cc4ccc(C#N)cc4)nccc3cn2)cc1 [Ex 156, 4-((7-((4-(vinylsulfonyl)phenyl)amino)-2,6-naphthyridin-1-yl)ethynyl)benzonitrile] | > 250 | > 250 | > 250 | 25 to 250 | – | – | – |
| Cc1c(-c2nccc3cnc(Nc4ccc(S(C)(=O)=O)cc4)cc23)ccc2c1cnn2C [Ex 158, 5-(1,4-dimethyl-1H-indazol-5-yl)-N-(4-(methylsulfonyl)phenyl)-2,6-naphthyridin-3-amine] | – | > 250 | > 250 | – | < 25 | 25 to 250 | – |
| C=CS(=O)(=O)c1ccc(Nc2cc3c(-c4ccc5cc[nH]c5c4)nccc3cn2)cc1 [Ex 162, 5-(1H-indol-6-yl)-N-(4-(vinylsulfonyl)phenyl)-2,6-naphthyridin-3-amine] | > 250 | > 250 | > 250 | – | < 25 | – | – |
| Cc1c(-c2nccc3cnc(Nc4ccc(S(C)(=O)=O)cc4)cc23)ccc2nn(C)cc12 [Ex 166, 5-(2,4-dimethyl-2H-indazol-5-yl)-N-(4-(methylsulfonyl)phenyl)-2,6-naphthyridin-3-amine] | – | – | > 250 | – | < 25 | 25 to 250 | IC50 (CDK6/CCND1; [9]): 25 to 250 nM |
| Cc1nc(-c2nccc3cnc(Nc4ccc(S(C)(=O)=O)cc4)cc23)no1 [Ex 167, 5-(5-methyl-1,2,4-oxadiazol-3-yl)-N-(4-(methylsulfonyl)phenyl)-2,6-naphthyridin-3-amine] | > 250 | > 250 | > 250 | 25 to 250 | – | – | – |
| CS(=O)(=O)c1ccc(Nc2cc3c(-c4ccc5[nH]ncc5c4Cl)nccc3cn2)cc1 [Ex 183, 5-(4-chloro-1H-indazol-5-yl)-N-(4-(methylsulfonyl)phenyl)-2,6-naphthyridin-3-amine] | – | > 250 | > 250 | – | < 25 | 25 to 250 | – |
| CS(=O)(=O)c1ccc(Nc2cc3c(-c4ccc5[nH]ncc5c4F)nccc3cn2)cc1 [Ex 184, 5-(4-fluoro-1H-indazol-5-yl)-N-(4-(methylsulfonyl)phenyl)-2,6-naphthyridin-3-amine] | – | > 250 | > 250 | 25 to 250 | – | 25 to 250 | – |
| C=CS(=O)(=O)c1ccc(Nc2cc3c(-c4ccc5[nH]ccc5c4)nccc3cn2)cc1 [Ex 185, 5-(1H-indol-5-yl)-N-(4-(vinylsulfonyl)phenyl)-2,6-naphthyridin-3-amine] | > 250 | > 250 | > 250 | 25 to 250 | – | – | – |
